For series [1], the target named is T1, recombinant human TopI (HTopI) (Homo sapiens, UniProt P11387).
T1 sequence (P11387 1-765): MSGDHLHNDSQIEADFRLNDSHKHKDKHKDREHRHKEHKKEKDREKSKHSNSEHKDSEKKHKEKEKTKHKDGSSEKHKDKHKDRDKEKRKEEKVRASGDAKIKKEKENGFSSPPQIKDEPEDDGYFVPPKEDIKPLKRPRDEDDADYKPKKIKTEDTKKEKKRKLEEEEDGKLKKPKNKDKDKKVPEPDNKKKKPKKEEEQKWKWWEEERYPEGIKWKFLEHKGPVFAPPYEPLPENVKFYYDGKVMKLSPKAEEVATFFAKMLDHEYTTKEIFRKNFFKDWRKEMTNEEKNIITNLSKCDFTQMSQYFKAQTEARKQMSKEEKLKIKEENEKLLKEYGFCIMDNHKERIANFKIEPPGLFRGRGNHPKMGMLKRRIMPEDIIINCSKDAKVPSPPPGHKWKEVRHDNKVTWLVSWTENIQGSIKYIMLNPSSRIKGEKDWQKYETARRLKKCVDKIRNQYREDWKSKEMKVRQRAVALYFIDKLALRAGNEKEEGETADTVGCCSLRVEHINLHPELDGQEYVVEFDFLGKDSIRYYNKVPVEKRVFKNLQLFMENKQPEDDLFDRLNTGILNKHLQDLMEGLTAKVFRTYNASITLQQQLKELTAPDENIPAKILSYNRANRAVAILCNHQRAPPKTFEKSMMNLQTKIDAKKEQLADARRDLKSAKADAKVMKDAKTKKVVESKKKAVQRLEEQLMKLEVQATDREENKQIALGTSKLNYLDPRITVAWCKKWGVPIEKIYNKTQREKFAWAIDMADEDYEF
The series can be described thus: Gel based plasmid DNA relaxation assay with recombinant TopI (in vitro). In kind it is biochemical. Conditions: for inhibition at 10 µM: read-out: In vitro inhibition at 10 μM; for IC50: plasmid DNA relaxation. As for the experimental part:
(§1) Human ToPI Inhibition in Plasmid DNA Relaxation Assays with Recombinant TopI (In Vitro) or MCF7 Cell Lysates (Ex Vivo)
(§2) Relaxation of supercoiled pBSSK(^+) DNA with recombinant human TopI (HTopI) at a molar ratio of 3:1 at 37° C. for 30 minutes was performed

Series [2] deals with T2, endogenous TopI from the whole cell extracts of human breast adenocarcinoma (MCF7) cell (Homo sapiens, UniProt P11387).
T2 construct: TopI enzyme in the extract is conserved in its native structure among a plethora of other cellular proteins; endogenous in cells; host or cells: MCF7 whole cell extract
T2 sequence (P11387 1-765): T1 sequence (P11387 1-765)
The series can be described thus: Plasmid DNA relaxation assay with MCF7 cell lysates (ex vivo). In kind it is biochemical. Conditions: MCF7 cell lysates as source of TopI. The method, then:
as §1, §2
cellular extracts were utilized as a source of TopI (ex vivo) in plasmid DNA relaxation assays. TopI enzyme in the extract is conserved in its native structure among a plethora of other cellular proteins.

The nature of series [3]: Caco-2 permeability (21 day culture of Caco-2 cell monolayer). In kind it is in vitro ADME. Conditions: human; for recovery at 120 min, 10 μM: Caco-2, pH 7.4, Caco-2; for Papp A→B at 120 min, 10 μM / Papp B→A at 120 min, 10 μM: pH 7.4, Caco-2, 10 μM; for Papp A→B at 120 min, 10 μM: read-out: Papp Apical to Basal; for Papp B→A at 120 min, 10 μM: read-out: Papp Basal to Apical. As for the experimental part:
5 mL of 100 mM sodium pyruvate, 5 mL of 10× non-essential amino acids, 5 mL of penstrep were added to 100 mL of heat inactivated foetal bovine serum to 385 mL of DMEM aseptically and mixed thoroughly. One vial of Hank's balanced salt (Sigma-H1387) was dissolved in 900 mL of milli Q water; adjusted the pH to 7.4 and made up the volume to 1000 mL with the same. The solution was filter sterilized and stored at 4° C. Stock solution of test compound (10 mM) was prepared in DMSO. 10 mM stock was diluted with HBSS Buffer to a final concentration of 10 μM.
250 μL of DMEM was added to the basal compartment of 96 well multi-screen Caco-2 plate and seeded 12000 cells/well (0.16×10^6 cells/ml) in all the apical wells required and one well with only media as blank without cells, placed the Caco-2 plate in CO2 incubator at 37° C. for proliferation of cells.
On the day of assay, medium was removed and washed twice with HBSS Buffer and incubated with HBSS buffer for 30 min in an incubator and wells with TEER values >230 ohm·cm^2 were selected for the incubation. 75 μL of test compound was added to apical wells and 250 μL of HBSS buffer with 2% BSA was added to basal wells. 25 μL of basal samples was collected at 120 min and processed as stated below.
250 μL of test compound was added to basal wells and 75 μL of HBSS buffer with 2% BSA was added to apical wells. 25 μL of apical samples was collected at 120 min and processed as stated below.
Single point calibration curve in HBSS buffer with 2% BSA was used. Donor samples were diluted 1:1 with HBSS containing 2% BSA and receiver samples were diluted with 1.1 HBSS buffer and precipitated with 200 μL of acetonitrile containing internal standard and vortexed for 5 min @ 1000 rpm, centrifuged at 4000 rpm for 10 min. Finally 100 μL of supernatant was diluted with 200 μL of water and submitted for LC-MS/MS analysis.
On the technique in general: Passage across Caco-2 layers is used to estimate intestinal permeability.

The next series is described as follows: Plasma stability assay. In kind it is in vitro ADME. The settings on record: pH 7.4, 37° C., 1 μM. As for the experimental part:
The stock solution of 10 mM of test compound in DMSO was prepared and stored at 4° C. 25 μM stock of test compound was prepared in acetonitrile: water by diluting from 10 mM stock (i.e. 2.5 μL of 10 mM stock solution was added to 997.5 μL of acetonitrile: water (50:50). The frozen plasma was thawed at room temperature and centrifuged at 1400×RCF (relative centrifugal force) 4° C., for 15 minutes. Approximately 90% of the clear supernatant fraction was transferred to a separate tube and was used for the assay.
For 0 min samples, plasma was heat inactivated at 56° C. for 45 min. To 72 μL of heat inactivated plasma, 3 μL of 25 μM test compound was added. A 25 μL aliquot of the mixture was taken and crashed with 200 μL of acetonitrile containing internal standard and further processed along with other time points. For other time point samples, final working stock of 1 μM was prepared by diluting in plasma (i.e. 8 μL of 25 μM acetonitrile:water stock was added to 192 μL of plasma). 200 μL of plasma containing the test compound was incubated for 2 hrs at 37° C. in shaker water bath with gentle shaking. 25 μL aliquot of sample at 0, 15, 30, 60 and 120 min was precipitated immediately with 200 μL of acetonitrile containing internal standard and centrifuged at 4000×RCF, 4° C. for 20 minutes. 150 μL of supernatant was diluted with 150 μL of water and analyzed on LC-MS/MS.

Series [4] is described as follows: Lipophilicity assay (octanol/buffer Log D). Conditions: octanol / sodium phosphate buffer pH 7.4.
Method: 1.56 g NaH2PO4.2H2O was dissolved in 0.5 L water in a 1 L beaker. After adjusting pH to 7.4 using NaOH solution, the volume was made up to 1 L. Equal volumes of sodium phosphate buffer (10 mM, pH 7.4) and n-octanol were added to a separation funnel and mixed thoroughly by shaking and inverting the funnel several times. The two layers were allowed to separate for 2 days and then dispensed in two separate glass bottles. 10 mM stock solution was prepared in 100% DMSO and stored at 4° C. 500 μL of organic phase (1-octanol) was added to each well of a 2 mL deep well plate, followed by 500 μL of buffer and 15 μL of test substance was added. The plate was vortexed for 1 hr on a plate shaker at 1200 rpm. After incubation, the samples were allowed to equilibrate for 20 min and then centrifuged at 4000 rpm for 30 min for complete phase separation and analysed by LC-UV.
Log D=Log(area of octanol/area of buffer)
Mean, SD and % CV for each set of triplicates were calculated
The mark [5] stands for this setting: recombinant human TopI, at 10 μM.

The term inhibition denotes the drop in the measured response relative to a control, in per cent. As usually defined, the IC50 is the point on the concentration scale where inhibition reaches its midpoint.

Where two headings read alike, the source gives them in different places.

For the compound `Brc1ccc2ncc(-c3nnco3)c(NCCCn3ccnc3)c2c1` [Compound 17, N-(3-(1H-imidazol-1-yl)propyl)-6-bromo-3-(1,3,4-oxadiazol-2-yl)quinolin-4-amine], the inhibition at 10 µM in series [1] (setting [5]) is 30%.
With `Cc1ccc(-c2ccc3ncc(-c4nnco4)c(NCCCn4ccnc4)c3c2)cc1` [Compound 29, N-(3-(1H-imidazol-1-yl)propyl)-3-(1,3,4-oxadiazol-2-yl)-6-p-tolylquinolin-4-amine], the IC50 in series [1] (recombinant human TopI) was 1.06 µM; in series [2] it was 3.75 µM.
As to `CCOC(=O)c1cnc2ccc(-c3ccc(OC)cc3)cc2c1NCCCn1ccnc1` [Compound 78, ethyl 4-((3-(1H-imidazol-1-yl)propyl)amino)-6-(4-methoxyphenyl)quinoline-3-carboxylate], the inhibition at 10 µM in series [1] (setting [5]) worked out at 35%.
In the case of `Nc1ccc(-c2ccc3ncc(-c4nnco4)c(NCCCn4ccnc4)c3c2)cc1` [Compound 20, N-(3-(1H-imidazol-1-yl)propyl)-6-(4-aminophenyl)-3-(1,3,4-oxadiazol-2-yl)quinolin-4-amine], the recovery at 120 min, 10 μM worked out at 72.7% in series [3] (read-out: A to B % Recovery) and 91.7% in series [3] (read-out: B to A % Recovery). Also, the Papp A→B at 120 min, 10 μM in series [3] is 0.63 ×10⁻⁶ cm/s. The Papp B→A at 120 min, 10 μM in series [3] amounted to 44.2 ×10⁻⁶ cm/s. Moreover, the “Mean % remaining at 2 hrs in human Plasma” value (“Mean % remaining at 2 hrs” for short) in “Plasma stability assay” is on record as 91.32%. Also, the IC50 in series [1] (recombinant human TopI) is 0.024 µM; in series [2] it was 2.25 µM. For the same compound, in series [4], the “Log D @ pH 7.40 Mean” value was determined as 2.56.
For `COCCc1ccc(OCC(O)CNC(C)C)cc1` (stereo not shown) [Metoprolol, reference compound], the “Log D @ pH 7.40 Mean” value in series [4] was −0.29.
On to `CNc1c(-c2nnco2)cnc2ccc(-c3ccc(OC)cc3)cc12` [Compound 77, 6-(4-methoxyphenyl)-N-methyl-3-(1,3,4-oxadiazol-2-yl)quinolin-4-amine], for which the inhibition at 10 µM in series [1] (setting [5]) was 20%.
Still for that read-out and setting: the same measure for `COc1ccc(-c2ccc3ncc(-c4nnc(C)o4)c(NCCN4CCOCC4)c3c2)cc1` [Compound 14, 6-(4-methoxyphenyl)-3-(5-methyl-1,3,4-oxadiazol-2-yl)-N-(2-morpholinoethyl)quinolin-4-amine]: 50%.
For `CC(C)[N+](C)(CCOC(=O)C1c2ccccc2Oc2ccccc21)C(C)C` [Propantheline, reference compound], the “Mean % remaining at 2 hrs” value in the series “Plasma stability assay” worked out at 0.00%.
Consider `COc1ccc(-c2ccc3ncc(-c4nnc(C)o4)c(NCCCn4ccnc4)c3c2)cc1` [Compound 54, N-(3-(1H-imidazol-1-yl)propyl)-6-(4-methoxyphenyl)-3-(5-methyl-1,3,4-oxadiazol-2-yl)quinolin-4-amine], for which the inhibition at 10 µM in series [1] (setting [5]) is 55%.
Turning to Topotecan [reference compound], in the series “Plasma stability assay”, the “Mean % remaining at 2 hrs” value is 11.5%.
In the case of `CC(C)NCC(O)COc1cccc2ccccc12` (stereo not shown) [Propranolol, reference compound], the recovery at 120 min, 10 μM in series [3] (read-out: A to B % Recovery) was 68%; in series [3] (read-out: B to A % Recovery), 72.7%. Moreover, in series [3], the Papp A→B at 120 min, 10 μM was 19.1 ×10⁻⁶ cm/s. In addition, the Papp B→A at 120 min, 10 μM in series [3] was 13.3 ×10⁻⁶ cm/s.
On to `COc1ccc(-c2ccc3ncc(-c4nnc(N)o4)c(NCCCn4ccnc4)c3c2)cc1` [Compound 52, 5-(4-(3-(1H-imidazol-1-yl)propylamino)-6-(4-methoxyphenyl)quinolin-3-yl)-1,3,4-oxadiazol-2-amine], for which the inhibition at 10 µM in series [1] was 45%.
With `COc1ccc(-c2ccc3ncc(-c4ccc(N)nc4)c(NCCCn4ccnc4)c3c2)cc1` [Compound 73, N-(3-(1H-imidazol-1-yl)propyl)-3-(6-aminopyridin-3-yl)-6-(4-methoxyphenyl)quinolin-4-amine], the IC50 in series [1] (recombinant human TopI) stood at 5.24 µM.
For the compound `COc1ccc(-c2ccc3ncc(-c4nnco4)c(NCCCn4ccnc4)c3c2)cc1C` [Compound 28, N-(3-(1H-imidazol-1-yl)propyl)-6-(4-methoxy-3-methylphenyl)-3-(1,3,4-oxadiazol-2-yl)quinolin-4-amine], the figures for the half-inhibitory concentration (IC50) in series [1] (recombinant human TopI) and in series [2] were 2.36 µM and 3 µM, respectively.
In the case of `COc1ccc(-c2ccc3ncc(-c4nnco4)c(NCCCN4CCOCC4)c3c2)cc1` [Compound 43, 6-(4-methoxyphenyl)-N-(3-morpholinopropyl)-3-(1,3,4-oxadiazol-2-yl)quinolin-4-amine], in series [3] (read-out: A to B % Recovery), the recovery at 120 min, 10 μM is 42.6%. Besides, the recovery at 120 min, 10 μM in series [3] (read-out: B to A % Recovery) came out at 58.5%. In series [3], the Papp A→B at 120 min, 10 μM is 10.9 ×10⁻⁶ cm/s and the Papp B→A at 120 min, 10 μM was 11 ×10⁻⁶ cm/s. Moreover, the “Mean % remaining at 2 hrs” value in “Plasma stability assay” was determined as 83.38%. In addition, in series [4], the “Log D @ pH 7.40 Mean” value worked out at 3.26.
`COc1ccc(-c2ccc3ncc(-c4nnco4)c(NCCCn4ccnc4)c3c2)c(OC)c1` [Compound 27, N-(3-(1H-imidazol-1-yl)propyl)-6-(2,4-dimethoxyphenyl)-3-(1,3,4-oxadiazol-2-yl)quinolin-4-amine]: in series [1] (setting [5]), the inhibition at 10 µM came to 45%.
Take `CCOC(=O)c1cnc2ccc(Br)cc2c1NCCCn1ccnc1` [Compound 15, ethyl 4-((3-(1H-imidazol-1-yl)propyl)amino)-6-bromoquinoline-3-carboxylate]: in series [1] (setting [5]), the inhibition at 10 µM stood at 30%.

The values above are taken from US20210246128A1, “BICYCLE TOPOISOMERASE I INHIBITING COMPOUNDS, PROCESS FOR PREPARATION AND USE THEREOF” (Council of Scientific & Industrial Research, priority 2018, published 2021).
